Data as given in patent US8349805B2, “Use of Gonadorelin as a therapeutic agent” (priority 2007, dated 2013).
Ends that are not written are not given here.

Tested on: drug-resistant Mycobacterium tuberculosis
Settings: 10 micrograms per ml; seven days at 37° C.; strain resistant to PAS, streptomycin and isoniazid

Molecule | inhibition of the growth of Mycobacterium tuberculosis
CC(C)C[C@H](NC(=O)CNC(=O)[C@H](Cc1ccc(O)cc1)NC(=O)[C@H](CO)NC(=O)[C@H](Cc1c[nH]c2ccccc12)NC(=O)[C@H](Cc1cnc[nH]1)NC(=O)[C@@H]1CCC(=O)N1)C(=O)N[C@@H](CCCNC(=N)N)C(=O)N1CCC[C@H]1C(=O)NCC(N)=O [Peptide 1] | 100%
Met-Gln-Met-Lys-Lys-Val-Leu-Asp-Ser-OH (MQMKKVLDS-OH) [Peptide 2] | 100%
